Laboratory results from publication PMC8822125, “RW-BP100-4D, a Promising Antimicrobial Candidate With Broad-Spectrum Bactericidal Activity” (Frontiers in Microbiology, 2022).
≈ marks a conversion by molar mass, not a printed value. Where a SMILES comes first, the peptide text is derived from it. Where no end group is shown, it is not given here.

Key:
[1] = tested on: methicillin-resistant S. aureus ATCC33591; assay: Mouse skin infection model; assay type: in vivo; details: 24 h
Procedure: (§1) Female ICR mice (∼18 g, four weeks old) bought from Yangzhou University were used in this study. They were reared with ad libitum access to drinking water and antibiotic-free feed. The animal experiments were conducted in strict accordance with the Laboratory Animal Welfare and Animal Experimental Ethical Certificate, as issued by Committee on Animal Welfare and Experimental Ethics in Jiangsu Academy of Agricultural Sciences (approval no. JAAS20200516 and JAAS20211208).
(§2) The mouse skin infection model and bacteremia model were established to evaluate the treatment efficacy of RW-BP100-4D on local and system infections, respectively. In each model, ICR female mice were equally allocated into different treatment groups and each group contained six mice. The mouse skin infection model and bacteremia model were constructed according to previously described methods ([Natalia et al., 2019]; [Song et al., 2020]). The mice were challenged with methicillin-resistant S. aureus ATCC33591 (mecA+, MRSA) via spreading on skin lesion (5 × 10^5 CFU/mL, 0.1 mL) or intraperitoneal injection (3.0 × 10^8CFU/mL, 0.5 mL). […] S. aureus isolates were counted by using the Chromagar selective agar (Chromagar, France) supplemented with 8 μg/mL oxacillin.

various microorganisms = assay: MIC/MBC, summary statements over several strains; assay type: cell-based; details: for MIC against S. aureus ATCC29213 and E. coli ATCC25922 (both strains together): summary of Table 1
[2] = tested on: Escherichia coli ATCC25922; details: Table 1; broth microdilution CLSI M100-S25, MH broth, 37°C, 18 h, three independent repeats
sheep red blood cells = sheep red blood cells in PBS, 37°C, 1 h, OD576, relative to melittin, mean ± SD, three repeats; for Hemolytic rate, 50 μg/mL: 50 μg/mL peptide; for Hemolytic rate, 100 μg/mL: 100 μg/mL peptide; for Hemolytic rate, 150 μg/mL: 150 μg/mL peptide; for Hemolytic rate, 300 μg/mL: 300 μg/mL peptide;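 as to all read-outs here: hemolysis expressed in % from supernatant absorbance, with PBS-treated cells as 0% baseline and melittin as 100%, peptide mixed 1:1 with an 8% v/v erythrocyte suspension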
MAC-T cells = details: peptide 150 μg/mL, 24 h, WST-1, mean ± SD, three repeats
RAW264.7 cells = details: peptide 150 μg/mL, 24 h, WST-1, mean ± SD, three repeats
[3] = tested on: Staphylococcus aureus ATCC29213; assay: MIC/MBC, broth microdilution; assay type: cell-based; details: Table 1; broth microdilution CLSI M100-S25, MH broth, 37°C, 18 h, three independent repeats
[4] = tested on: Escherichia coli and Psudomnas aeruginosa isolates; design: method as in Ferre et al., 2009; details: ref Ferre et al., 2009; cited from earlier work
[5] = tested on: S. aureus ATCC29213 mature biofilm; assay: Mature biofilm dispersal assay (crystal violet); assay type: cell-based, Staphylococcus aureus; details: peptide 200 μg/mL, 30 min, 37°C on 24 h biofilm, crystal violet OD590
Procedure: Each test was performed with three independent repeats.

S. aureus ATCC29213 = assay: Intracellular antibacterial activity in MAC-T cells; assay type: cell-based, Staphylococcus aureus; details: 2 h, infected MAC-T cells
Procedure: (§3) The intracellular antibacterial activity of RW-BP100-4D against S. aureus ATCC29213 and S. enterica ATCC13076 were determined as described previously ([John et al., 2019]). MAC-T cells were cultured in a 12-well plate and then infected with S. aureus ATCC29213 or S. enterica ATCC13076 (∼10^5CFU, MOI = 10) for 1 h. The spare bacteria were eliminated by treating with kanamycin (100 μg/mL) for 1 h. After that, kanamycin was removed by washing with PBS for 4 times. Then RW-BP100-4D or RW-BP100 were added to a final concentration of 50 μg/mL, respectively and incubated for 2 h. Meanwhile, kanamycin (50 μg/mL) and PBS were set as the antibiotic treatment group and treatment control group, respectively. Finally, MAC-T cells were treated with 0.1% TritonX-100. The lysates were serially diluted and spread on selective agar plates to enumerate the intracellular live bacteria. Each test was performed with three independent repeats.

S. enterica ATCC13076 = assay: as above; assay type: cell-based, Salmonella enterica; details: 2 h, infected MAC-T cells
Procedure: as §3

HeLa = details: peptide concentration 11 μM; ref Torcato et al., 2013; cited from earlier work
human erythrocytes = details: peptide 4.9 μM; ref Torcato et al., 2013; cited from earlier work
[6] = tested on: methicillin-resistant S. aureus ATCC33591; assay: Mouse bacteremia model; assay type: in vivo; details: 25 mg/kg intraperitoneal 2 h after infection; 24 h
Procedure: as §1, §2

Q: Which “Bacteria load in infected mouse skin, antibiotic control” value ([1]; ampicillin 1 mg/mL, 100 μL on skin lesion) does the source give for `CC1(C)S[C@@H]2[C@H](NC(=O)[C@H](N)c3ccccc3)C(=O)N2[C@H]1C(=O)O` [ampicillin] here?
A: Its value is “did not decrease the bacteria load”.

Q: With `CC[C@@H](C)[C@@H](NC(=O)[C@@H](CCCNC(=N)N)NC(=O)[C@@H](CCCNC(=N)N)NC(=O)[C@@H](Cc1ccccc1)NC(=O)[C@@H](CC(C)C)NC(=O)[C@@H](CCCNC(=N)N)NC(=O)[C@H](N)CCCNC(=N)N)C(=O)N[C@H](CC(C)C)C(=O)N[C@H](CCCNC(=N)N)C(=O)N[C@H](Cc1c[nH]c2ccccc12)C(=O)N[C@H](CC(C)C)C(N)=O` [RW-BP100-All-D] (HELM PEPTIDE1{[dR].[dR].[dL].[dF].[dR].[dR].[dI].[dL].[dR].[dW].[dL].[am]}$$$$V2.0) as the molecule, how does the “MIC against S. aureus ATCC29213 and E. coli ATCC25922 (both strains together)” value (various microorganisms) read?
A: Its value is 3 to 12 µg/mL.

Q: What about the “MIC Escherichia coli ATCC25922” value [2] of the same molecule?
A: Its value is 6 µg/mL (≈ 3.79 µM).

Q: What about the “Hemolytic rate, 50 μg/mL” value (sheep red blood cells) of the same molecule?
A: Its value is 1.94 ± 0.94%.

Q: And the “Hemolytic rate, 100 μg/mL” value (sheep red blood cells)?
A: The value was 2.75 ± 0.23%.

Q: What about the “Hemolytic rate, 150 μg/mL” value (sheep red blood cells) of the same molecule?
A: The value was 30.39 ± 2.11%.

Q: And the “Hemolytic rate, 300 μg/mL” value (sheep red blood cells)?
A: Its value is 51.40 ± 1.94%.

Q: And the “Cell survival rate, MAC-T” value (MAC-T cells)?
A: The value was 14.23 ± 2.37%.

Q: What about the “Cell survival rate, RAW264.7” value (RAW264.7 cells) of the same molecule?
A: Its value is 23.37 ± 1.58%.

Q: And the “MIC Staphylococcus aureus ATCC29213” value [3]?
A: The value was 6 µg/mL (≈ 3.79 µM).

Q: For “KKLFKKILKYL-NH2 [BP100, short cationic AMP of 11 amino acids (…-NH2), hybrid of cecropin A and melittin]”, which “MIC against Escherichia coli and Psudomnas aeruginosa isolates” value [4] is on record?
A: The value was 2.5 to 5 µM.

Q: Which results are given for RRLFRRILRWL-NH2 [RW-BP100]?
A: MBC values relative to the corresponding MIC values (various microorganisms; over the strains of Table 2): 4–8 fold; Mature biofilm matrix lost compared to the PBS control [5]: 29.4%; Elimination of intracellular S. aureus ATCC29213 (S. aureus ATCC29213; peptide 50 μg/mL, CFU count): 2.34 log; Reduction of S. aureus ATCC33591 in infected mouse skin ([1]; peptide 50 μg (1 mg/mL, 50 μL) on skin lesion 2 h after infection, ICR female mice): 3.13 log; Elimination of intracellular S. enterica ATCC13076 (S. enterica ATCC13076; peptide 50 μg/mL, CFU count): 2.57 log; Cell death rate of HeLa (HeLa): 73%; Hemolytic rate toward human erythrocytes (human erythrocytes): 50%; Bacterial loads in heart, liver and kidney at 25 mg/kg [6]: did not significantly reduce

Q: Which results are given for `CC[C@H](C)[C@H](NC(=O)[C@H](CCCNC(=N)N)NC(=O)[C@H](CCCNC(=N)N)NC(=O)[C@H](Cc1ccccc1)NC(=O)[C@H](CC(C)C)NC(=O)[C@H](CCCNC(=N)N)NC(=O)[C@@H](N)CCCNC(=N)N)C(=O)N[C@H](CC(C)C)C(=O)N[C@@H](CCCNC(=N)N)C(=O)N[C@@H](Cc1c[nH]c2ccccc12)C(=O)N[C@@H](CC(C)C)C(N)=O` [RW-BP100-8D] (HELM PEPTIDE1{R.R.L.F.R.R.I.[dL].R.W.L.[am]}$$$$V2.0)?
A: MIC against S. aureus ATCC29213 and E. coli ATCC25922 (both strains together) (various microorganisms): 3 to 12 µg/mL; MIC Escherichia coli ATCC25922 [2]: 12 µg/mL (≈ 7.58 µM); Hemolytic rate, 50 μg/mL (sheep red blood cells): 0.91 ± 0.38%; Hemolytic rate, 100 μg/mL (sheep red blood cells): 1.38 ± 0.58%; Hemolytic rate, 150 μg/mL (sheep red blood cells): 26.19 ± 0.10%; Hemolytic rate, 300 μg/mL (sheep red blood cells): 50.11 ± 3.17%; Cell survival rate, MAC-T (MAC-T cells): 54.78 ± 2.65%; Cell survival rate, RAW264.7 (RAW264.7 cells): 20.30 ± 3.26%; MIC Staphylococcus aureus ATCC29213 [3]: 12 µg/mL (≈ 7.58 µM)

Q: Which “Intracellular CFU versus the untreated group, S. aureus ATCC29213” value (S. aureus ATCC29213; kanamycin 50 μg/mL) does the source give for `NC[C@H]1O[C@H](O[C@H]2[C@H](O)[C@@H](O[C@H]3O[C@H](CO)[C@@H](O)[C@H](N)[C@H]3O)[C@H](N)C[C@@H]2N)[C@H](O)[C@@H](O)[C@@H]1O` [kanamycin] here?
A: The value was “no significant difference”.

Q: And the “Intracellular CFU versus the untreated group, S. enterica ATCC13076” value (S. enterica ATCC13076; kanamycin 50 μg/mL)?
A: The value was “no significant difference”.
